Data taken from patent publication US8883850B2, “Naphthalene carboxamide M1 receptor positive allosteric modulators” (Merck Sharp & Dohme Corp., priority 2010, dated 2014).
Where two headings read alike, the source gives them in different places.

Molecular target: T1, acetylcholine muscarinic M1 receptor (Homo sapiens, UniProt P11229)
T1 construct: expressed in transfected cells; host or cells: CHOnfat (CHO cells; also called CHOK1/hM1)
T1 sequence (P11229 1-460): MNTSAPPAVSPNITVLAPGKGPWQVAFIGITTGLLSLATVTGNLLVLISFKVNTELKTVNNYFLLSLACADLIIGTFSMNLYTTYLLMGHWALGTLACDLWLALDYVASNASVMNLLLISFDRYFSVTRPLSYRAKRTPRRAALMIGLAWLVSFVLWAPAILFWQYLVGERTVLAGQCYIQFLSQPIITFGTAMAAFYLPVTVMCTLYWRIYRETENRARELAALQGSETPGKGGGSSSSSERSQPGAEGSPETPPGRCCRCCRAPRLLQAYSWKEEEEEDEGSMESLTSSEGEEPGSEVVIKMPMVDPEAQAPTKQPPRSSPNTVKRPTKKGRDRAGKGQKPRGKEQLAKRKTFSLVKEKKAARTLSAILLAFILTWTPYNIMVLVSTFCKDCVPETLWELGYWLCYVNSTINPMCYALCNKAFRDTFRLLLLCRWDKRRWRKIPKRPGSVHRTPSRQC
Experiment: M1 FLIPR assay: intracellular calcium, potentiation of acetylcholine EC20
Type: cell-based
Procedure: The assay studies the effect of one or several concentrations of test compounds on basal or acetylcholine-stimulated Ca^2+ levels using FLIPR.
For each compounds of the invention that was evaluated, the compound is prepared and subjected to a pre-incubation period of four minutes. Thereafter, a single EC20 concentration of acetylcholine is added to each well (3 nM final). The intracellular Ca^2+ level of each sample is measured and compared to an acetylcholine control to determine any modulatory activity.
Cells: CHOnfat/hM1, hM2, hM3 or hM4 cells are plated 24 hours before the assay at a density of 18,000 cells/well (100 μL) in a 384 well plate. CHOnfat/hM1 and CHOnfat/hM3 Growth Medium: 90% DMEM (Hi Glucose); 10% HI FBS; 2 mM L-glutamine; 0.1 mM NEAA; Pen-Strep; and 1 mg/ml Geneticin, are added. For M2Gqi5CHOnfat and M4Gqi5CHOnfat cells, an additional 600 μg/ml hygromycin is added.
Dye Loading Buffer: Assay Buffer plus 1% Fetal Bovine Serum and Fluo-4AM/Pluronic Acid Mixture. […] 20% Pluronic acid solution stock, with a concentration of 0.04% in Buffer, 0.02% in Assay. 65 μL of 2 mM Fluo-4AM are mixed with 130 μL of 20% pluronic acid. The resulting solution and 650 μL FBS is added to the assay buffer for a total volume of 65 mL.
Positive Controls: 4-Br-A23187: 10 mM in DMSO, final concentration 10 μM. Acetylcholine: […], working stock at both 20 μM and 30 μM in assay buffer, final concentration of 10 μM. This is used to check the maximum stimulation of the CHOK1/hM1 cells. 20 μM (2×) acetylcholine is added in the preincubation part of the assay, and the 30 μM (3×) stock is added in the second part. (EC20)Acetylcholine: 10 mM in water, working stock of 9 nM (3×), and final concentration in assay is 3 nM. This is used after the preincubation with test compounds. Addition of the EC20 Acetylcholine to each well with a test compound will ascertain any modulator activity. 24 wells contain 3 nM Acetylcholine alone as a control.
Four 96-well plates are combined into a 384-well plate using Mosquito Nanoliter Pipetting System by transferring 1 μl of serial diluted compounds to each well, and 1 mM acetylcholine (100× stock concentration) were added as a control. Using Temo, 49 μl assay buffer is added to each well of the 384-well plate right before assay.
In a 96-well Whatman 2 ml Uniplate, 9 nM Acetylcholine (3×) is pipetted into wells corresponding to the screening compounds, and into control wells. The 30 μM acetylcholine control (3×) is added into control wells, and the 3× agonist plate is transferred into a 384 well plate.
Cells are washed three times with 100 μL of buffer, leaving 30 μL of buffer in each well. Using Multimek, 30 μL of Dye Loading Buffer is added into each well and incubated at 37° C., 5% CO2 for up to one hour.
After 60 minutes, the cells are washed three times with 100 μL of buffer, leaving 30 μL of buffer in each well. The cell plate, screening plate, and agonist addition plates are placed on the platform in the FLIPR and the door closed. A signal test to check background fluorescence and basal fluorescence signal is performed. Laser intensity is adjusted if necessary.
Four minutes of pre-incubation with the test compounds is provided to determine any agonist activity on the M1 receptor by comparison to the […] acetylcholine control. After pre-incubation, the EC20 value of acetylcholine (3 nM final) is added to determine any modulator activity.

[1] = inflection point value from FLIPR assay, CHOnfat/hM1 cells, 4 min pre-incubation, then acetylcholine EC20 (3 nM final), Table 1, Formula (III), read-out: M1 IP Value
[2] = M1 activity in a FLIPR assay, Table 3, Examples 1-12, read-out: M1 Potential

Structure (SMILES) | EC50 [1] [nM] | EC50 [2] [nM] | also measured
COc1c(C(=O)O)cc(Cc2ccc(-c3ccccc3)cc2)c2ccccc12 [Compound 1-1] | 872 | – | –
COc1c(C(=O)O)cc(Cc2ccc(NC(C)=O)cc2)c2ccccc12 [Compound 1-2] | 1550 | – | –
COc1c(C(=O)N[C@H]2CCCC[C@@H]2O)cc(Cc2ccc(-c3cccnc3)nc2)c2ccccc12 [Compound 1-3] | 24 | – | –
COc1ccc(Cc2cc(C(=O)N[C@H]3CCCC[C@@H]3O)c(OC)c3ccccc23)cn1 [Compound 1-7] | 280 | – | –
COc1c(C(=O)N[C@H]2CCCC[C@@H]2O)cc(Cc2ccc(SC)nc2)c2ccccc12 [Compound 1-9] | 169 | – | –
COc1c(C(=O)N[C@H]2CCCC[C@@H]2O)cc(Cc2ccnc(C)c2)c2ccccc12 [Compound 1-11] | 224 | – | –
COc1cc(Cc2cc(C(=O)N[C@H]3CCCC[C@@H]3O)c(OC)c3ccccc23)ccn1 [Compound 1-12] | 140 | – | –
COc1c(C(=O)N[C@H]2CCOC[C@@H]2O)cc(Cc2ccc(C)nc2)c2ccccc12 [Compound 1-13] | 87 | – | –
COc1c(C(=O)N[C@H]2CCOC[C@@H]2O)cc(Cc2ccc(-c3ccnc(C)c3)nc2)c2ccccc12 [Compound 1-14] | 6.8 | – | –
COc1c(C(=O)N[C@H]2CCOC[C@@H]2O)cc(Cc2ccc(-c3ccc(C)nc3)nc2)c2ccccc12 [Compound 1-15] | 22 | – | –
C=CCOc1c(C(=O)N[C@H]2CCCC[C@@H]2O)cc(Cc2ccc(Cl)nc2)c2ccccc12 [Compound 2-2] | – | – | EC50 (inflection point value from FLIPR assay, CHOnfat/hM1 cells, 4 min pre-incubation, then acetylcholine EC20 (3 nM final), Table 2, Formula (IV), read-out: M1 IP Value): 1140 nM
COc1ccc(Cc2cc(C(=O)O)c(OC)c3ccccc23)cc1 [Example 1, 1-Methoxy-4-(4-methoxybenzyl)-2-naphthoic acid] | – | 3320 | –
COc1c(C(=O)O)cc(Cc2ccc(-n3cccn3)cc2)c2ccccc12 [Example 2, 1-Methoxy-4-[4-(1H-pyrazol-1-yl)benzyl]-2-naphthoic acid] | – | 574 | –
COc1c(C(=O)N[C@H]2CCCC[C@@H]2O)cc(Cc2ccc(Cl)nc2)c2ccccc12 [Example 3, 4-[(6-Chloropyridin-3-yl)methyl]-N-[(1S,2S)-2-hydroxycyclohexyl]-1-methoxy-2-naphthamide] | – | 260 | –
COc1c(C(=O)N[C@H]2CCCC[C@@H]2O)cc(Cc2ccc(C)nc2)c2ccccc12 [Example 4] | – | 121 | –
COc1c(C(=O)N[C@H]2CCCC[C@@H]2O)cc(Cc2ccc(-c3cnn(C)c3)nc2)c2ccccc12 [Example 5, N-[(1S,2S)-2-Hydroxycyclohexyl]-1-methoxy-4-{[6-(1-methyl-1H-pyrazol-4-yl)pyridine-3-yl]methyl}-2-naphthamide] | – | 17 | –
O=C(N[C@H]1CCCC[C@@H]1O)c1cc(Cc2ccc(-n3cccn3)nc2)c2ccccc2c1O [Example 6, 1-Hydroxy-N-[(1S,2S)-2-hydroxycyclohexyl]-4-{[6-(1H-pyrazol-1-yl)pyridine-3-yl]methyl}-2-naphthamide] | – | 4710 | –
COc1c(C(=O)N[C@H]2CCCC[C@@H]2O)cc(Cc2ccc(-n3cccn3)nc2)c2ccccc12 [Example 7, N-[(1S,2S)-2-Hydroxycyclohexyl]-1-methoxy-4-{[6-(1H-pyrazol-1-yl)pyridine-3-yl]methyl}-2-naphthamide] | – | 82 | –
COc1c(C(=O)N[C@H]2CCCC[C@@H]2O)cc(CN2CCN(c3cnn(C)c3)CC2)c2ccccc12 [Example 8, N-[(1S,2S)-2-Hydroxycyclohexyl]-1-methoxy-4-{[4-(1-methyl-1H-pyrazol-4-yl)piperazin-1-yl]methyl}-2-naphthamide] | – | 3880 | –
CCc1ccc(Cc2cc(C(=O)N[C@H]3CCCC[C@@H]3O)c(OC)c3ccccc23)cn1 [Example 9, N-[(1S,2S)-2-Hydroxycyclohexyl]-1-methoxy-4-[(6-ethylpyridin-3-yl)methyl]-2-naphthamide] | – | 190 | –
COc1c(C(=O)N[C@H]2CCOC[C@@H]2O)cc(Cc2ccc(Cl)nc2)c2ccccc12 [Example 10, 4-[(6-Chloropyridin-3-yl)methyl]-N-[(3R,4S)-3-hydroxytetrahydro-2H-pyran-4-yl]-1-methoxy-2-naphthamide] | – | 56 | –
COc1c(C(=O)N[C@H]2CCCC[C@@H]2O)cc(Cc2ccnc(SC)c2)c2ccccc12 [Example 11, N-[(1S,2S)-2-Hydroxycyclohexyl]-1-methoxy-4-{[2-(methylthio)pyridin-4-yl]methyl}-2-naphthamide] | – | 281 | –
CCOc1c(C(=O)N[C@H]2CCCC[C@@H]2O)cc(Cc2ccc(Cl)nc2)c2ccccc12 [Example 12] | – | 985 | –
